According to patent publication US8357703B2, “Pyridines” (Hoffmann-La Roche Inc., priority 2009, dated 2013):

Target: T1, human GABA A α5β3γ2 receptor (Homo sapiens, UniProt P18507+P31644)
T1 construct: expressed in transfected cells; host or cells: HEK293 (transiently transfected), membranes
Experiment: [3H]flumazenil competition binding to HEK293 cells expressing human GABA A receptors
Conditions: competition for [3H]flumazenil (0.5 nM for α5); HEK293 cells expressing human (transiently transfected) receptors; means of two determinations; read-out: hKi GABA Aα5
Experimental: The affinity of compounds at GABA A receptor subtypes was measured by competition for [^3H]flumazenil (85 Ci/mmol; Roche) binding to HEK293 cells expressing rat (stably transfected) or human (transiently transfected) receptors of composition α1β3γ2, α2β3γ2, α3β3γ2 and α5β3γ2.
Cell pellets were suspended in Krebs-tris buffer (4.8 mM KCl, 1.2 mM CaCl2, 1.2 mM MgCl2, 120 mM NaCl, 15 mM Tris; pH 7.5; binding assay buffer), homogenized by polytron for ca. 20 sec on ice and centrifuged for 60 min at 4° C. (50000 g; Sorvall, rotor: SM24=20000 rpm). The cell pellets were resuspended in Krebs-tris buffer and homogenized by polytron for ca. 15 sec on ice. Protein was measured (Bradford method, Bio-Rad) and aliquots of 1 mL were prepared and stored at −80° C.
Radioligand binding assays were carried out in a volume of […] (96-well plates) which contained […] of cell membranes, [^3H]flumazenil at a concentration of 1 nM for α1, α2, α3 subunits and 0.5 nM for α5 subunits and the test compound in the range of […]. Nonspecific binding was defined by 10^−5 M diazepam and typically represented less than 5% of the total binding. Assays were incubated to equilibrium for 1 hour at 4° C. and harvested onto GF/C uni-filters (Packard) by filtration using a Packard harvester and washing with ice-cold wash buffer (50 mM Tris; pH 7.5). After drying, filter-retained radioactivity was detected by liquid scintillation counting. Ki values were calculated using Excel-Fit (Microsoft) and are the means of two determinations.
Representative test results, obtained by the above described assay measuring binding affinity to HEK293 cells expressing human (h) receptors, are shown in table 1 below.

Point of comparison: `CCCCc1noc(C)c1COc1ccc(C(=O)N[C@@H](C)C(F)(F)F)cn1` [Example 20, 6-((3-Butyl-5-methyl-isoxazol-4-yl)methoxy)-N—((S)-2,2,2-trifluoro-1-methyl-ethyl)-nicotinamide], Ki 7.5 nM. Against it:
- Cc1onc(N2CCCC2)c1COc1ccc(C(=O)NC2CCOCC2)cn1 [Example 41, 6-((5-methyl-3-pyrrolidin-1-yl-isoxazol-4-yl)methoxy)-N-(tetrahydro-pyran-4-yl)-nicotinamide] — 1.9-fold lower, 3.9 nM
- Cc1onc(C2CCCCC2)c1COc1ccc(C(=O)NCCO)cn1 [Example 34, 6-((3-Cyclohexyl-5-methyl-isoxazol-4-yl)methoxy)-N-(2-hydroxy-ethyl)-nicotinamide] — within 1.5-fold, 5.8 nM
- Cc1onc(CCC(F)(F)F)c1COc1ccc(C(=O)NC2CCOCC2)cn1 [Example 4, 6-[(5-Methyl-3-(3,3,3-trifluoro-propyl)-isoxazol-4-yl)methoxy]-N-(tetrahydro-pyran-4-yl)-nicotinamide] — 5.3-fold higher, 39.9 nM
- Cc1onc(C2CCOCC2)c1COc1ccc(C(=O)NC(C)C)cn1 [Example 37, N-Isopropyl-6-[(5-methyl-3-(tetrahydro-pyran-4-yl)-isoxazol-4-yl)methoxy]-nicotinamide] — 2.9-fold higher, 21.9 nM
- CCCCc1noc(C)c1COc1ccc(C(=O)NC(C)CO)cn1 (single isomer, unassigned; (+)) [Example 11, (+)-6-((3-Butyl-5-methyl-isoxazol-4-yl)methoxy)-N-(2-hydroxy-1-methyl-ethyl)-nicotinamide] — within 1.5-fold, 7.3 nM
